Data taken from the supplement of paper PMC10307832.

Columns and labels:
Assay in all cases: relative viability (nuclei count vs DMSO), 5 days (fraction); higher = more cells survive
[1] = compound: O=C(NC1CCNCC1)c1n[nH]cc1NC(=O)c1c(Cl)cccc1Cl [AT-7519] + CC(C)C[C@H](NC(=O)[C@H](Cc1ccccc1)NC(=O)c1cnccn1)B(O)O [Bortezomib] (partner 0.002 µM)
In short: (§1)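 Lung cancer cell lines were seeded in 1536-well plates and dosed by pin tool the next day, with either a single drug or a fixed anchor-drug dose combined with five library-drug doses (not always all listed) spaced in √10 steps. Five days later, one step fixed the cells and stained their nuclei (final 0.05% Triton X-100, 1% formaldehyde, 1 ug/ml Hoechst), and nuclei were counted on 4× images. Relative viability is the nuclei count in treated wells divided by the count in vehicle wells, and each value is the median of duplicate plates.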

[2] = compound: C1=CC2=C(C=C(C(=C2N=C1)O)N=NC3=CC4=C(C=C3)C=C(C=C4)S(=O)(=O)O)S(=O)(=O)O + Cc1nc(NC(=O)N2CCC[C@H]2C(N)=O)sc1-c1ccnc(C(C)(C)C(F)(F)F)c1 [Alpelisib] (partner 2 µM)
In short: as §1

[3] = compound: O=C(NC1CCNCC1)c1n[nH]cc1NC(=O)c1c(Cl)cccc1Cl [AT-7519] + C[C@]1(O)C[C@@H](c2nc(-c3ccc4ccc(-c5ccccc5)nc4c3)c3c(N)nccn32)C1 [Linsitinib] (partner 1 µM)
In short: as §1

[4] = compound: C1=CC2=C(C=C(C(=C2N=C1)O)N=NC3=CC4=C(C=C3)C=C(C=C4)S(=O)(=O)O)S(=O)(=O)O + O=C(c1cc(Cc2n[nH]c(=O)c3ccccc23)ccc1F)N1CCN(C(=O)C2CC2)CC1 [Olaparib] (partner 8 µM)
In short: as §1

Cell Line	relative viability ([1]; first compound 0.01 µM)	relative viability ([1]; first compound 0.03162 µM)	relative viability ([1]; first compound 0.3162 µM)	relative viability ([1]; first compound 1 µM)	relative viability ([2]; first compound 0.08 µM)	relative viability ([2]; first compound 0.253 µM)	relative viability ([2]; first compound 0.8 µM)	relative viability ([2]; first compound 2.53 µM)	relative viability ([2]; first compound 8 µM)	relative viability ([3]; first compound 0.01 µM)	relative viability ([3]; first compound 0.03162 µM)	relative viability ([3]; first compound 0.3162 µM)	relative viability ([3]; first compound 1 µM)	relative viability ([4]; first compound 0.08 µM)	relative viability ([4]; first compound 0.253 µM)	relative viability ([4]; first compound 0.8 µM)	relative viability ([4]; first compound 2.53 µM)	relative viability ([4]; first compound 8 µM)
COR-L 105	0.75	0.898	0.65	0.344	1.05	1.03	1.26	0.966	1.08	0.962	0.907	0.867	0.516	0.676	0.62	0.732	0.701	0.83
NCI-H1975	0.352	0.301	0.433	0.202	0.741	0.653	0.603	0.645	0.649	0.917	0.795	0.746	0.172	0.868	0.854	0.772	0.795	0.824
Calu-6	1.11	0.975	1	0.328	0.942	0.965	1.1	0.988	1.04	1.05	0.942	1.07	0.772	0.55	0.546	0.55	0.58	0.658
NCI-H1993	0.987	0.979	1.07	0.683	0.71	0.682	0.747	0.705	0.701	0.707	0.738	0.663	0.585	1.03	0.931	1.18	1.09	1.1
RERF-LC-KJ	1.1	1.14	1.08	0.797	0.907	0.842	0.795	0.818	0.843	0.914	0.848	1.03	0.811	0.889	0.964	0.987	0.959	1.02
NCI-H23	0.983	1.04	0.852	0.504	0.753	0.676	0.614	0.705	0.807	0.591	0.619	0.523	0.255	0.27	0.339	0.343	0.324	0.359
HCC-366	1.26	0.864	1.07	0.442	0.386	0.344	0.389	0.401	0.439	0.639	0.522	0.429	0.185	0.432	0.402	0.335	0.361	0.319
EMC-BAC-2	1.04	1.07	1.01	1.07	0.8	0.75	0.711	0.766	0.696	0.823	0.816	0.778	0.77	0.504	0.485	0.493	0.489	0.465
NCI-H2405	0.978	1.04	1.02	0.863	0.805	0.758	0.838	0.886	0.722	1.19	0.847	0.865	0.473	0.85	0.888	0.816	0.898	0.845
EPLC-272H	1.03	0.973	0.723	0.812	0.996	0.831	0.876	0.963	0.944	0.999	1.1	0.945	1.18	0.855	0.683	0.722	1	0.808
EBC-1	0.615	0.551	0.443	0.23	0.822	0.854	0.743	0.813	1.03	0.935	1.01	0.938	0.934	0.808	0.634	0.694	0.758	0.732
NCI-H1915	1.07	1.06	0.546	0.944	1.09	1.05	1.08	1.09	1.06	1.08	1.05	1.11	0.909	0.25	0.286	0.256	0.258	0.258
NCI-H596	1.08	1.13	0.882	1.03	0.48	0.454	0.575	0.475	0.482	1.04	0.91	0.973	0.897	0.7	0.798	0.639	0.746	0.747
NCI-H322M	1.2	1.26	1.27	1.52	0.917	0.82	0.687	0.846	0.814	0.95	0.926	0.962	0.946	0.733	0.705	0.691	0.78	0.834
NCI-H1299	1.05	0.996	1.05	1.28	0.985	1.04	1.01	0.997	1.05	1.1	0.96	0.946	0.645	1.01	0.95	0.935	0.956	0.976
NCI-H2228	0.977	0.801	0.66	0.8	0.687	0.787	0.778	0.655	0.695	0.618	0.564	0.544	0.312	0.779	0.772	0.658	0.851	0.751
IA-LM	0.927	0.979	0.781	0.302	0.85	0.561	0.751	0.965	0.832	0.765	0.491	0.442	0.548	1.01	0.777	0.788	0.747	0.952
NCI-H647	1.04	0.909	1.21	0.564	1.32	1.19	1.11	1.17	0.984	0.982	1.13	1.38	0.48	0.516	0.48	0.522	0.65	0.545

Cell Line	relative viability ([1]; first compound 0.01 µM)	relative viability ([1]; first compound 0.03162 µM)	relative viability ([1]; first compound 0.3162 µM)	relative viability ([1]; first compound 1 µM)	relative viability ([2]; first compound 0.08 µM)	relative viability ([2]; first compound 0.253 µM)	relative viability ([2]; first compound 0.8 µM)	relative viability ([2]; first compound 2.53 µM)	relative viability ([2]; first compound 8 µM)	relative viability ([3]; first compound 0.01 µM)	relative viability ([3]; first compound 0.03162 µM)	relative viability ([3]; first compound 0.3162 µM)	relative viability ([3]; first compound 1 µM)	relative viability ([4]; first compound 0.08 µM)	relative viability ([4]; first compound 0.253 µM)	relative viability ([4]; first compound 0.8 µM)	relative viability ([4]; first compound 2.53 µM)	relative viability ([4]; first compound 8 µM)
NCI-H2085	1.22	1.04	0.995	0.964	1.08	0.989	1.05	1	0.913	0.904	0.857	0.726	0.637	0.866	0.757	0.811	0.757	0.722
SW 1573	0.981	0.842	0.884	0.428	0.92	0.727	0.775	0.761	0.797	0.762	0.664	0.739	0.398	0.574	0.413	0.523	0.483	0.29
NCI-H727	0.973	0.837	0.573	0.526	0.547	0.578	0.537	0.609	0.567	0.287	0.309	0.163	0.167	0.635	0.676	0.684	0.859	0.665
NCI-H441	0.449	0.394	0.671	0.497	0.823	0.823		0.736	1.09	0.553	0.482	0.487	0.395	0.617	0.57	0.586	0.531	0.595
LOU-NH91	0.541	0.541	0.468	0.478	0.783	0.744	0.703	0.761	0.675	0.984	0.894	0.916	0.776	1.01	0.907	0.927	0.881	0.919
NCI-H3122	1.03	1.01	1.06	0.688	0.891	0.795	0.719	0.732	0.76	0.971	1.03	1.06	0.421	0.643	0.623	0.561	0.644	0.584
NCI-H460	1.05	0.91	0.533	0.046	0.545	0.456	0.511	0.5	0.291	0.712	0.63	0.159	0.0184	0.537	0.356	0.444	0.43	0.425
NCI-H650	0.827	0.75	0.86	0.975	1.25	1.11	1.08	1.08	1.09	0.854	0.791	1.04	0.693	0.458	0.404	0.386	0.384	0.402
NCI-H661	0.743	0.755	0.786	0.567	0.746	0.467	0.54	0.703	0.967	0.46	0.513	0.538	0.343	0.744	0.744	0.831	0.761	0.72
NCI-H1734	0.782	0.884	0.842	0.442	0.746	0.692	0.636	0.638	0.689	0.92	0.874	0.796	0.549	0.609	0.588	0.697	0.642	0.624
LXF-289	0.951	1.05	0.957	1.01	1.13	1.01	1.02	1.08	0.976	0.957	1.02	1.04	0.933	1.26	1	0.973	1.05	1.03
H3255	0.904	0.825	0.984	0.766	0.82	0.698	0.717	0.775	0.712	0.964	0.888	0.909	0.788	0.6	0.571	0.551	0.638	0.587
201T	1.08	1.03	1.1	1.09	1.02	0.991	0.995	1.06	1.03	0.933	1.04	1.06	1.05	0.846	0.82	0.871	0.852	0.832
NCI-H2126	1.17	1.14	1.13	1.17	0.834	0.738	0.779	0.724	0.768	0.747	0.744	0.682	0.675	0.957	0.901	0.904	0.893	0.874
HOP-62	0.723	0.825	0.827	0.718	1.27	1.14	1.19	0.817	0.704	0.93	0.859	0.682	1.05	0.403	0.376	0.312	0.465	0.516
CAL-12T		0.929	0.593	0.336	1.85	1.13	1.08	1.29	1.13	0.755	0.752	0.69	0.314	0.85	0.678	0.648	0.681	0.74
NCI-H520	0.745	0.628	0.413	0.323	0.907	0.846	0.923	0.869	0.995	1.01	0.88	0.82	0.454	0.327	0.342	0.337	0.301	0.387
